These results are taken from article PMC7177833, “2-Aminopyridine Analogs Inhibit Both Enzymes of the Glyoxylate Shunt in Pseudomonas aeruginosa” (International Journal of Molecular Sciences, 2020).

By IC50 is commonly meant the concentration that gives 50% inhibition. A word on the inhibition: it is the relative decrease from the control value, in per cent. One may read the half-life as the time needed for the level to fall by half in the phase considered. For orientation: microsomal CLint means the rate of metabolic loss divided by the concentration.

Data set [1] concerns the target T1, MSPa (malate synthase G from P. aeruginosa) (Pseudomonas aeruginosa, UniProt Q9I636).
T1 construct: made in house
Briefly: Inhibition of purified MSPa enzymatic activity. It counts as biochemical. The settings on record: for inhibition at 75 µM: read-out: Enzyme Inhibition (%) at 75 µM MSPa. The procedure: The enzymatic activity of purified ICLPa and MSPa was assayed essentially as previously described. Compounds were added to the reaction mixtures (minus substrates) and incubated for 5 min at 37 °C. The enzyme concentration in the reaction mixtures was 170 nM for ICL and 25 nM for MS (based on the concentration of the monomer in each case). […] The reactions were initiated by the addition of pH-adjusted substrates, and the initial rates were recorded as A324 nm (for ICLPa) and A412 nm (for MSPa) using a Biospectrometer (Eppendorf, Stevenage, UK). Substrate turnover was calculated from the molar extinction coefficient of the assay products: Glyoxylate-phenylhydrazone (16,800/M/cm) for ICLPa and 2-nitro-5-thiobenzoic acid (14,150/M/cm) for MSPa.
All data fitting was performed with GraphPad Prism version 7.04 (GraphPad Software, Inc., La Jolla, CA, USA). The solid lines are the result of fitting the data to the equations denoted in relevant experimental sections. IC50 values were determined by a nonlinear fit using the equation for sigmoidal dose-response with variable slope. In all graphs, unless otherwise stated, the data points are the mean of experimental triplicates, and all error bars correspond to ± standard deviation.

A short description of data set [2]: Metabolic stability in rat liver microsomes. The settings on record: RLM; for Clh, int (predicted hepatic clearance): scaled; for Clh (predicted in vivo hepatic clearance): well-stirred model; for half-life at 0.5 µM / microsomal CLint at 0.5 µM: rat, pooled rat liver microsomes, pH 7.4. The data set is classed as in vitro ADME. The procedure: (§1) The metabolic stability of the test compounds was measured following incubation with liver microsomes from humans (BioIVT, lot no. IHG; West Sussex, UK) and rats (BD Gentest, lot no. 60614; BD Biosciences, Milan, Italy). Verapamil and dextromethorphan were used as positive controls. An automated incubation procedure was performed using the RSP Freedom Evo liquid dispensing and incubation system (TECAN, Milan, Italy). Five microliters of 50 µM test compound or positive control were added to 445 µL of microsomal suspension in 96 deep-well plates. The microsomal preparation comprised 0.56 mg/mL of pooled and homogenized liver microsomes suspended in 50 mM potassium phosphate buffer, pH 7.4. After 5 min at 37 °C, the reactions were initiated by adding 50 µL of prewarmed NADPH regenerating buffer to each sample. The regenerating buffer comprised a 2% NaHCO3 solution containing 1.7 mg NADP, 7.8 mg glucose-6-phosphate, and 6 units of glucose-6-phosphate dehydrogenase per mL. The samples were incubated at 37 °C, and 50 µL aliquots were withdrawn after 0, 3, 10, 15, 30, and 45 min and quenched in 150 µL acetonitrile. […] The analytical column was a Synergi “Max-RP” reverse phase C12 with TMS endcapping (30 mm × 2 mm, 4 µm particle size) (Phenomenex, Inc., Bologna, Italy). The column temperature was maintained at 60 °C. […] Analytes were quantified in multiple reaction-monitoring mode. Peak areas were integrated using Integrator Software from Agilent (Agilent Technologies, Milan, Italy) and were divided by the peak areas of the internal standard. The percentage of parent compound remaining was calculated by normalizing the peak area ratio of the parent compound to that of the internal standard at time 0. The half-lives of compound metabolism were derived from the linear portion of the slope of ln percent parent compound vs time. Intrinsic clearance in liver microsomes was estimated from: (1) Clint=k×(V/M) (2) Clh, int=(Clint (×1st Scaling factor)×2^ndScaling factor) (3) Clh=(Q×Clh, int)/(Q+Clh, int).
(§2) Here, k is the rate of depletion of the parent compound ([…]), V is the volume of the reaction mixture in mL, and M is the concentration of microsomal protein (in mg/mL). The amounts of protein in the incubations were scaled relative to the average liver- and body-mass of each species to obtain intrinsic hepatic clearance (Clh, int, in […]) (Table S3). These scaling factors were used along with the average hepatic blood flow (Q, in […]) of each species to obtain in vivo correlations (Clh, in mL/min/kg) using the well-stirred model.

In a further data set the target is T2, CYP2C9 (Homo sapiens, UniProt P11712).
T2 construct: pooled human liver microsomes; tissue BioIVT; host or cells: pooled human liver microsomes
T2 sequence (P11712 whole entry): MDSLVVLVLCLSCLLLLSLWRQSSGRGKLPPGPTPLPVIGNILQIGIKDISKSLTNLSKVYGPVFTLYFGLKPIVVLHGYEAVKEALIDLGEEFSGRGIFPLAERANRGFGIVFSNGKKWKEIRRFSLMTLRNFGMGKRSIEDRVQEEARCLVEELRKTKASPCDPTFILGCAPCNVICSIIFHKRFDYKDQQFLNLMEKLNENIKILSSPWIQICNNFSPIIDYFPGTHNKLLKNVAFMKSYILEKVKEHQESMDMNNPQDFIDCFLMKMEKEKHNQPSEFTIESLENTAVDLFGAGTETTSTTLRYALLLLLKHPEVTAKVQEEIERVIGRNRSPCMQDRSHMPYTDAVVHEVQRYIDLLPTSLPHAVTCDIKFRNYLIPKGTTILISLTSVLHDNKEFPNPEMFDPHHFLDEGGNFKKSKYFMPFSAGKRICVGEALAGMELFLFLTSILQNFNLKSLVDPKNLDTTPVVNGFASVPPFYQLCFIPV
In words: CYP450 inhibition in HLM, diclofenac probe. It counts as in vitro ADME. The settings on record: read-out: IC50 CYP450 2C9. The procedure:
(§3) The CYP450 inhibition was determined by measuring the reaction products of known CYP450 substrates (probes). Probe solutions were prepared by diluting stock solutions with buffer (100 mM Tris-HCl, pH 7.5, and 0.5 mM EDTA) to the final indicated concentrations (Figure 5), and adding 180 µL of pooled human liver microsomes (20 mg/mL) (BioIVT, West Sussex, UK). These probe solutions were dispensed (195 µL) into clear 96-well plates with low evaporation lids (Corning, Turin, Italy) and the plates were prewarmed to 37 °C in a thermomixer (Hamilton, Agrate Brianza, Italy). Next, 5 µL of the test compound or appropriate positive control (Table S4) were added to the wells and the plates were incubated for a further 5 min. Following this, the reactions were started by adding NADPH regenerating solution (50 µL, see previous Section 4.7) to each well. CYP450 mixtures containing phenacetin, rosiglitazone, mephenytoin, atorvastatin, and nifedipine probes were incubated for 10 min at 37 °C, whereas those with midazolam and diclofenac were incubated for 5 min at 37 °C. Aliquots (100 µL) from each reaction mixture were quenched in 200 µL acetonitrile, and the mixtures were sedimented at 3000 ×g for 10 min at 4 °C. The supernatants were diluted in water containing 5 ng/mL Rolipram as an internal standard for LC-MS/MS analysis. All incubations were carried out in triplicate.
(§4) Probe products were analyzed on an API4000 Qtrap mass spectrometer (Applied Biosystems/MDS SCIEX, Monza, Italy) coupled with an Acquity UPLC system (Waters, Milan, Italy) and a CTC-PAL auto-injector (CTC Analytics AG, Zwingen, Switzerland). […] The column temperature was maintained at 60 °C. The injected sample volume was 10 µL, and analytes were eluted at a flow rate of 800 µL/min in a gradient of eluent A (water with 0.1% formic acid) and eluent B (acetonitrile with 0.1% formic acid). […] The analytes were quantified in multiple reaction-monitoring mode. Data were processed, and the percentage control activity was calculated based on a comparison between the ratio of the sample peak area and the peak area.

Data set [3] is described as follows: Metabolic stability in human liver microsomes. It counts as in vitro ADME. The settings on record: HLM; for Clh, int (predicted hepatic clearance): scaled; for Clh (predicted in vivo hepatic clearance): well-stirred model; for half-life at 0.5 µM / microsomal CLint at 0.5 µM: human, pooled human liver microsomes, pH 7.4. As for the experimental part: as §1, §2

A further data set relates to CYP450 isozymes. In words: CYP450 inhibition in HLM, whole isozyme panel. It counts as in vitro ADME, human. The settings on record: over the concentration range tested. As for the experimental part:
as §3, §4

T1 sequence (Q9I636 whole entry): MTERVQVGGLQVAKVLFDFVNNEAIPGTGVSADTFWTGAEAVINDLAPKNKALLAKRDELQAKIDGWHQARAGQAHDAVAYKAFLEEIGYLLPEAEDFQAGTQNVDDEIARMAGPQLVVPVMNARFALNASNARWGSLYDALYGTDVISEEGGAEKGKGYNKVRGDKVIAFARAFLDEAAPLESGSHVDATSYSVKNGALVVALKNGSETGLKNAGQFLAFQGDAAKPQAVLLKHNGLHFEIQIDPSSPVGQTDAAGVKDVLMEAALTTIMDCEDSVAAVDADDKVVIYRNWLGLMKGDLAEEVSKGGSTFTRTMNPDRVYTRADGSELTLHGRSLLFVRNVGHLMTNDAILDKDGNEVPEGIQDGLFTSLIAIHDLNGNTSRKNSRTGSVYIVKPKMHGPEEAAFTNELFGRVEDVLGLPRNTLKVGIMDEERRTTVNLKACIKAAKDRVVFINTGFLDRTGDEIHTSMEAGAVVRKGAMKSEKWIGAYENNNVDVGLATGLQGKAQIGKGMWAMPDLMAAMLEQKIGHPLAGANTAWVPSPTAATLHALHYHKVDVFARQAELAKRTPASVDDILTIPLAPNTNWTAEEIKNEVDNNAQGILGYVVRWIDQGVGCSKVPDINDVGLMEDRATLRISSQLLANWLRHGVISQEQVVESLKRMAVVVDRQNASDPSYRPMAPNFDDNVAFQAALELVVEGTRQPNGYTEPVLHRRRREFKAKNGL

In turn, `Nc1cc(Cl)ccn1` [Compound 2-AP, 2-amino-4-chloropyridine, reference compound] had an IC50 in data set [1] of more than 75 µM. Moreover, in data set [1] (75 µM compound), the inhibition at 75 µM amounted to 18.2%. Also, in data set [2], the “Clh, int (predicted hepatic clearance)” value is reported as 14.63 mL/min/kg; the “Clh (predicted in vivo hepatic clearance)” value is on record as 12.48 mL/min/kg; the half-life at 0.5 µM was 3.66 h; the intrinsic metabolic clearance (microsomal CLint) at 0.5 µM turned out to be 6.33 µL/min/mg. Moreover, on CYP2C9, the half-maximal inhibitory concentration (IC50) is more than 100 µM. For the same compound, in data set [3], the “Clh, int (predicted hepatic clearance)” value is 34.33 mL/min/kg; the “Clh (predicted in vivo hepatic clearance)” value is 12.91 mL/min/kg; the half-life at 0.5 µM was 0.911 h; the microsomal CLint at 0.5 µM was found to be 25.4 µL/min/mg. The “inhibitory drug–drug interactions (CYP450 inhibition)” value (from here on “inhibitory drug–drug interactions”) in the data set on CYP450 isozymes is listed as “no major inhibitory drug–drug interactions”.

With `CC(C)(C)OC(=O)/N=C(\NC(=O)OC(C)(C)C)Nc1cc(Cl)ccn1` [SB002], the 50% inhibitory concentration (IC50) in data set [1] was 4.5 µM. In data set [1] (75 µM compound), the “Enzyme Inhibition (%) at 75 µM MSPa” value was determined as 94.5% and the inhibition at 75 µM is more than 90%. Besides, in data set [2], the “Clh, int (predicted hepatic clearance)” value was 62.99 mL/min/kg; the “Clh (predicted in vivo hepatic clearance)” value is recorded as 36.18 mL/min/kg; the half-life at 0.5 µM turned out to be 0.85 h; the intrinsic metabolic clearance (microsomal CLint) at 0.5 µM stood at 27.3 µL/min/mg. The IC50 on CYP2C9 is more than 100 µM. Further, in data set [3], the T1/2 is 1.342 h; the “Clh, int (predicted hepatic clearance)” value was 23.31 mL/min/kg; the “Clh (predicted in vivo hepatic clearance)” value is recorded as 10.96 mL/min/kg; the half-life at 0.5 µM came to 1.35 h. Further, the intrinsic metabolic clearance (microsomal CLint) at 0.5 µM in data set [3] stood at 17.3 µL/min/mg. Also, in the data set with CYP450 isozymes, the “inhibitory drug–drug interactions” value was “no major inhibitory drug–drug interactions”.

Consider `CC(C)(C)OC(=O)/N=C(\NC(=O)OC(C)(C)C)Nc1cc(C#N)ccn1` [SB023], for which the half-maximal inhibitory concentration (IC50) in data set [1] stood at 14.5 µM. In data set [1] (75 µM compound), the inhibition at 75 µM came out at 90.4%. In data set [2], the “Clh, int (predicted hepatic clearance)” value was 124.58 mL/min/kg; the “Clh (predicted in vivo hepatic clearance)” value was 50.53 mL/min/kg; the half-life at 0.5 µM was 0.43 h; the intrinsic metabolic clearance (microsomal CLint) at 0.5 µM came out at 53.9 µL/min/mg. Besides, at CYP2C9, the IC50 was more than 100 µM. Further, in data set [3], the T1/2 came to 1.214 h; the “Clh, int (predicted hepatic clearance)” value is reported as 25.75 mL/min/kg; the “Clh (predicted in vivo hepatic clearance)” value is given as 11.48 mL/min/kg; the half-life at 0.5 µM is 1.2 h. Moreover, in data set [3], the intrinsic clearance (microsomal CLint) at 0.5 µM was found to be 19.1 µL/min/mg. The “inhibitory drug–drug interactions” value with CYP450 isozymes is “no major inhibitory drug–drug interactions”.
